[1] abbreviates: CC50 B/Florida/04/2006, cytotoxicity in the B/Florida/04/2006 assay.
[2] abbreviates: CC50, third EC50/CC50 column pair (c7), beside the EC50 of c6.

In general, melting point refers to the temperature, or range, at which the solid turns liquid.

Consider `Cc1ccccc1Sc1nnc(CCn2nc(C)c(Br)c2C)o1` [Compound 54, 2-(2-(4-bromo-3,5-dimethyl-1H-pyrazol-1-yl)ethyl)-5-(o-tolylthio)-1,3,4-oxadiazole], for which the melting point turned out to be 103.6 °C. For the same compound, the CC50 in “in vitro” (setting [1]) was greater than 50 µM.
In the same order, the values of `Cc1ccccc1CSc1ncc(C(=O)n2nc(C)c(Br)c2C)o1` [Compound 55, (4-bromo-3,5-dimethyl-1H-pyrazol-1-yl)(2-((2-methylbenzyl)thio)oxazol-5-yl)methanone] are 123.6 °C and greater than 50 µM.
For `Cc1nn(C(=O)c2ccc(Sc3ccccc3C(C)C)o2)c(C)c1Br` [Compound 56, (4-bromo-3,5-dimethyl-1H-pyrazol-1-yl)(5-((2-isopropylphenyl)thio)furan-2-yl)methanone] the same measures were 169.7 °C and greater than 50 µM.
In the same order, the values of `Cc1nn(C(=O)c2ccc(Oc3ccccc3C(C)C)o2)c(C)c1Br` [Compound 57, (4-bromo-3,5-dimethyl-1H-pyrazol-1-yl)(5-(2-isopropylphenoxy)furan-2-yl)methanone] are 103.3 °C and greater than 50 µM.
In turn, `Cc1cccc(C)c1Nc1nnc(C(O)c2ccccc2)o1` (stereo not shown) [Compound 77, (5-((2,6-dimethylphenyl)amino)-1,3,4-oxadiazol-2-yl)(phenyl)methanol] returned a melting point of 179 °C. In “in vitro” (setting [1]), this compound yielded a CC50 greater than 50 µM.
For `Cc1cccc(C)c1Nc1nnc(C(=O)c2ccc(F)c(Cl)c2)o1` [Compound 78, (3-chloro-4-fluorophenyl)(5-((2,6-dimethylphenyl)amino)-1,3,4-oxadiazol-2-yl)methanone] the same measures were 252.8 °C and greater than 50 µM.
`CC(C)c1ccccc1/C=C/c1nnc(Cc2ccc(OC(F)(F)F)cc2)o1` [Compound 81, (E)-2-(2-isopropylstyryl)-5-(4-(trifluoromethoxy)benzyl)-1,3,4-oxadiazole] returned a melting point of 91.6 °C. The CC50 in the data set “in vitro” (CC50, beside the EC50 of c2) is greater than 50 µM. Also, in the data set “in vitro” (CC50, beside the EC50 of c4), the CC50 is greater than 50 µM. Further, in the data set “in vitro” (setting [2]), the CC50 was greater than 50 µM.
`Brc1ccc(Nc2nnc(/C=C/c3cccc4ncccc34)o2)cc1` [Compound 121, (E)-N-(4-bromophenyl)-5-(2-(quinolin-5-yl)vinyl)-1,3,4-oxadiazol-2-amine] had a melting point of 246.5 °C. The CC50 in “in vitro” (CC50, beside the EC50 of c2) was greater than 50 µM. Moreover, the CC50 in the data set “in vitro” (CC50, beside the EC50 of c4) is greater than 50 µM. The same compound yielded a CC50 in the data set “in vitro” (setting [2]) greater than 50 µM.
`Brc1ccc(Cc2nnc(/C=C/c3ccccc3Br)o2)cc1` [Compound 128, (E)-2-(4-bromobenzyl)-5-(2-bromostyryl)-1,3,4-oxadiazole] gave a melting point of 156.1 °C. The CC50 in “in vitro” (CC50, beside the EC50 of c2) is greater than 50 µM. In addition, the CC50 in the data set “in vitro” (CC50, beside the EC50 of c4) is greater than 50 µM. For the same compound, the CC50 in “in vitro” (setting [2]) is greater than 50 µM.
As for `Clc1ccc(/C=C/c2nnc(Cc3ccc(Br)cc3)o2)cc1Cl` [Compound 149, 2-(4-bromobenzyl)-5-(3,4-dichlorostyryl)-1,3,4-oxadiazole], the melting point amounted to 164.5 °C. In “in vitro” (CC50, beside the EC50 of c2), this compound registered a CC50 greater than 50 µM. The compound further showed a CC50 in the data set “in vitro” (CC50, beside the EC50 of c4) greater than 50 µM. Moreover, in the data set “in vitro” (setting [2]), the CC50 is greater than 50 µM.
The compound `Clc1ccc(-c2ccccc2/C=C/c2nnc(Cc3ccc(Br)cc3)o2)cc1` [Compound 153, 2-(4-bromobenzyl)-5-(2-(4′-chloro-[1,1′-biphenyl]-2-yl)vinyl)-1,3,4-oxadiazole] yielded a melting point of 123.7 °C. The compound also came in with a CC50 in “in vitro” (CC50, beside the EC50 of c2) greater than 50 µM. Besides, the CC50 in “in vitro” (CC50, beside the EC50 of c4) was greater than 50 µM. Besides, in the data set “in vitro” (setting [2]), the CC50 is greater than 50 µM.
The compound `Brc1ccc(Cc2nnc(-c3cc4ccccc4o3)o2)cc1` [Compound 156, 2-(benzofuran-2-yl)-5-(4-bromobenzyl)-1,3,4-oxadiazole] registered a melting point of 145.7 °C. The CC50 in the data set “in vitro” (CC50, beside the EC50 of c2) was greater than 50 µM. The CC50 in the data set “in vitro” (CC50, beside the EC50 of c4) is greater than 50 µM. In addition, in “in vitro” (setting [2]), the CC50 was greater than 50 µM.
On to `Clc1ccc2oc(-c3nnc(Cc4ccc(Br)cc4)o3)cc2c1` [Compound 157, 2-(4-bromobenzyl)-5-(5-chlorobenzofuran-2-yl)-1,3,4-oxadiazole], for which the melting point was 149.7 °C. This compound registered a CC50 in “in vitro” (CC50, beside the EC50 of c2) greater than 50 µM. This compound had a CC50 in “in vitro” (CC50, beside the EC50 of c4) greater than 50 µM. In “in vitro” (setting [2]), the CC50 was greater than 50 µM.
In turn, `Clc1ccccc1/C=C/c1nnc(Cc2ccc(Br)cc2)o1` [Compound 166, 2-(4-bromobenzyl)-5-(2-chlorostyryl)-1,3,4-oxadiazole] showed a melting point of 136.3 °C. The same compound displayed a CC50 in the data set “in vitro” (CC50, beside the EC50 of c2) greater than 50 µM. This compound had a CC50 in the data set “in vitro” (CC50, beside the EC50 of c4) greater than 50 µM. The compound further returned a CC50 in the data set “in vitro” (setting [2]) greater than 50 µM.
Regarding `Clc1cccc(/C=C/c2nnc(Cc3ccc(Br)cc3)o2)c1` [Compound 167, 2-(4-bromobenzyl)-5-(3-chlorostyryl)-1,3,4-oxadiazole], the melting point stood at 105.1 °C. Further, in the data set “in vitro” (CC50, beside the EC50 of c2), the CC50 is greater than 50 µM. The compound also registered a CC50 in “in vitro” (CC50, beside the EC50 of c4) greater than 50 µM. This compound had a CC50 in the data set “in vitro” (setting [2]) greater than 50 µM.
`Clc1cccc(Cl)c1/C=C/c1nnc(Cc2ccc(Br)cc2)o1` [Compound 168, 2-(4-bromobenzyl)-5-(2,6-dichlorostyryl)-1,3,4-oxadiazole] came in with a melting point of 139.3 °C. The CC50 in the data set “in vitro” (CC50, beside the EC50 of c2) was greater than 50 µM. In the data set “in vitro” (CC50, beside the EC50 of c4), this compound came in with a CC50 greater than 50 µM. Besides, the CC50 in “in vitro” (setting [2]) is greater than 50 µM.
Compound `Cc1cc(Cc2nnc(/C=C/c3ccccc3C(C)C)o2)ccc1Br` [Compound 172, 2-(4-bromo-3-methylbenzyl)-5-(2-isopropylstyryl)-1,3,4-oxadiazole] registered a melting point of 117.1 °C. Moreover, the CC50 in the data set “in vitro” (CC50, beside the EC50 of c2) was greater than 50 µM. The compound also returned a CC50 in the data set “in vitro” (CC50, beside the EC50 of c4) greater than 50 µM. The compound further showed a CC50 in the data set “in vitro” (setting [2]) greater than 50 µM.
As to `CC(C)c1ccccc1/C=C/c1nc(Cc2ccc(Br)cc2)no1` [Compound 175, (E)-3-(4-bromobenzyl)-5-(2-isopropylstyryl)-1,2,4-oxadiazole], the melting point amounted to 81.5 °C. In “in vitro” (CC50, beside the EC50 of c2), this compound returned a CC50 greater than 50 µM. The compound further gave a CC50 in “in vitro” (CC50, beside the EC50 of c4) greater than 50 µM. For the same compound, the CC50 in “in vitro” (setting [2]) is greater than 50 µM.
`Fc1ccc(/C=C/c2nnc(Cc3ccc(F)c(Br)c3)o2)c(Br)c1` [Compound 266, 2-(3-bromo-4-fluorobenzyl)-5-(2-bromo-4-fluorostyryl)-1,3,4-oxadiazole] had a melting point of 124.9 °C.
Same read-out and setting: to `Fc1ccc(/C=C/c2nnc(Cc3cccc(C4CC4)c3)o2)c(Cl)c1` [Compound 267, 2-(2-chloro-4-fluorostyryl)-5-(3-cyclopropylbenzyl)-1,3,4-oxadiazole] belongs 110.2 °C; to `Fc1cccc(/C=C/c2nnc(Cc3cccc(Br)c3)o2)c1F` [Compound 280, 2-(3-bromobenzyl)-5-(2,3-difluorostyryl)-1,3,4-oxadiazole], 97.4 °C; to `FC(F)(F)c1ccccc1/C=C/c1nnc(Cc2cccc(Br)c2)o1` [Compound 281, 2-(3-bromobenzyl)-5-(2-(trifluoromethyl)styryl)-1,3,4-oxadiazole], 107.2 °C.
The compound `Cc1ccc(Br)cc1Cc1nnc(/C=C/c2ccc(F)cc2Cl)o1` [Compound 282, 2-(5-bromo-2-methylbenzyl)-5-(2-chloro-4-fluorostyryl)-1,3,4-oxadiazole] had a melting point of 169.3 °C.
Same read-out and setting: the value for `Fc1ccc(/C=C/c2nnc(Cc3cc(Br)ccn3)o2)c(Cl)c1` [Compound 283, 2-((4-bromopyridin-2-yl)methyl)-5-(2-chloro-4-fluorostyryl)-1,3,4-oxadiazole] was 149.5 °C; that for `Fc1cc(F)c(/C=C/c2nnc(Cc3cccc(Br)c3)o2)c(Br)c1` [Compound 290, 2-(2-bromo-4,6-difluorostyryl)-5-(3-bromobenzyl)-1,3,4-oxadiazole] was 118.2 °C.
Compound `Fc1ccc(/C=C/c2nnc(Cc3cccc(Cl)c3F)o2)c(Cl)c1` [Compound 291, 2-(3-chloro-2-fluorobenzyl)-5-(2-chloro-4-fluorostyryl)-1,3,4-oxadiazole] returned a melting point of 118.1 °C.
On the same count and under the same terms, to `Fc1cc(Br)cc(Cc2nnc(/C=C/c3ccc(F)cc3Cl)o2)c1` [Compound 292, 2-(3-bromo-5-fluorobenzyl)-5-(2-chloro-4-fluorostyryl)-1,3,4-oxadiazole] belongs 143 °C; to `Fc1ccc(/C=C/c2nnc(Cc3cccc(Br)c3F)o2)c(Cl)c1` [Compound 293, 2-(3-bromo-2-fluorobenzyl)-5-(2-chloro-4-fluorostyryl)-1,3,4-oxadiazole], 135.8 °C.
The same measure, in the same setting: to `Cc1c(Br)cccc1Cc1nnc(/C=C/c2ccc(F)cc2Cl)o1` [Compound 294, 2-(3-bromo-2-methylbenzyl)-5-(2-chloro-4-fluorostyryl)-1,3,4-oxadiazole] belongs 158.3 °C; to `Cc1ccc2cccc(Cc3nnc(/C=C/c4ccc(F)cc4Cl)o3)c2n1` [Compound 295, 2-(2-chloro-4-fluorostyryl)-5-((2-methylquinolin-8-yl)methyl)-1,3,4-oxadiazole], 191.2 °C.
On the same count and under the same terms, the value for `COc1ccc2cccc(Cc3nnc(/C=C/c4ccc(F)cc4Cl)o3)c2c1` [Compound 298, 2-(2-chloro-4-fluorostyryl)-5-((7-methoxynaphthalen-1-yl)methyl)-1,3,4-oxadiazole] was 179.9 °C.
In turn, `Fc1ccc(/C=C/c2nnc(Cc3cccc(C(F)F)c3)o2)c(Cl)c1` [Compound 299, 2-(2-chloro-4-fluorostyryl)-5-(3-(difluoromethyl)benzyl)-1,3,4-oxadiazole] yielded a melting point of 108.1 °C.
The same measure, in the same setting: to `Cc1ccc(Cc2nnc(/C=C/c3ccc(F)cc3Cl)o2)cc1Cl` [Compound 300, 2-(2-chloro-4-fluorostyryl)-5-(3-chloro-4-methylbenzyl)-1,3,4-oxadiazole] belongs 161.4 °C.
As to `Cc1ccc(Cc2nnc(/C=C/c3ccc(F)cc3N(C)CCc3ccccc3)o2)cc1Br` [Compound 305, 2-(2-(5-(3-bromo-4-methylbenzyl)-1,3,4-oxadiazol-2-yl)vinyl)-5-fluoro-N-methyl-N-phenethylaniline], the melting point turned out to be 80.7 °C.

Source of the values: US11149033B2, “Heteroaryl compound, enantiomer, diastereomer or pharmaceutically acceptable salt thereof, and antiviral composition containing same as active ingredient” (priority 2016, dated 2021).
